According to paper PMC5206433 (BioMed Research International, 2016):

Molecular target: integrin αIIbβ3 (Homo sapiens, UniProt P05106+P08514)
Format: binding

integrin αIIbβ3, sequence (P08514 32-887): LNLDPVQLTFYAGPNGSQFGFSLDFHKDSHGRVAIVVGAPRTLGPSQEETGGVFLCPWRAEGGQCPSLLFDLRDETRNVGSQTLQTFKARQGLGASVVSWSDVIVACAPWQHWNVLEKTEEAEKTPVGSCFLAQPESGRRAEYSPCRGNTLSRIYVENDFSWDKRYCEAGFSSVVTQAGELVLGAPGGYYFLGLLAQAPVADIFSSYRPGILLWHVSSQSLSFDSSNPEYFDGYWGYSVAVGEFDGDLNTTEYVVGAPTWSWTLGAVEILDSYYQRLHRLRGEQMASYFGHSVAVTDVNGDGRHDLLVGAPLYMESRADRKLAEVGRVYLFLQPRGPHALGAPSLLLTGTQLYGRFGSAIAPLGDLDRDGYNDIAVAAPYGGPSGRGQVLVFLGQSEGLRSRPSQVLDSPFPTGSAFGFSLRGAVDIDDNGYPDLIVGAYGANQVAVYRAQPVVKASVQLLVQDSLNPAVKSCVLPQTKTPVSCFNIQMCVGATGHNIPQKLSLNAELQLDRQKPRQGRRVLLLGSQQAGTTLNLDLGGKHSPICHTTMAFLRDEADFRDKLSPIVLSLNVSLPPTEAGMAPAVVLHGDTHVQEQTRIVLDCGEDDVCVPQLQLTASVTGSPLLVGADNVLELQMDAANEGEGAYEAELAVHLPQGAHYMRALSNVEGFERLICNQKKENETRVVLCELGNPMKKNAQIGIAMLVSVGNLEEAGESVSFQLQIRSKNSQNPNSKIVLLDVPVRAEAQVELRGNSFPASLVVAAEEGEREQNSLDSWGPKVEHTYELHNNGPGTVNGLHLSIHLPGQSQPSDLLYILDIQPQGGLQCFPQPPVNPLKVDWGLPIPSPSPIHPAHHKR
integrin αIIbβ3, sequence (P08514 891-1039): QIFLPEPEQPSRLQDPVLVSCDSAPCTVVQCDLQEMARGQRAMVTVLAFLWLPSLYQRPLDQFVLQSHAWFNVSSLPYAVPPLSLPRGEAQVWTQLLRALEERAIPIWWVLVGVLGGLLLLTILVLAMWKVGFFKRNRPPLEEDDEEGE
integrin αIIbβ3, sequence (P05106 27-788): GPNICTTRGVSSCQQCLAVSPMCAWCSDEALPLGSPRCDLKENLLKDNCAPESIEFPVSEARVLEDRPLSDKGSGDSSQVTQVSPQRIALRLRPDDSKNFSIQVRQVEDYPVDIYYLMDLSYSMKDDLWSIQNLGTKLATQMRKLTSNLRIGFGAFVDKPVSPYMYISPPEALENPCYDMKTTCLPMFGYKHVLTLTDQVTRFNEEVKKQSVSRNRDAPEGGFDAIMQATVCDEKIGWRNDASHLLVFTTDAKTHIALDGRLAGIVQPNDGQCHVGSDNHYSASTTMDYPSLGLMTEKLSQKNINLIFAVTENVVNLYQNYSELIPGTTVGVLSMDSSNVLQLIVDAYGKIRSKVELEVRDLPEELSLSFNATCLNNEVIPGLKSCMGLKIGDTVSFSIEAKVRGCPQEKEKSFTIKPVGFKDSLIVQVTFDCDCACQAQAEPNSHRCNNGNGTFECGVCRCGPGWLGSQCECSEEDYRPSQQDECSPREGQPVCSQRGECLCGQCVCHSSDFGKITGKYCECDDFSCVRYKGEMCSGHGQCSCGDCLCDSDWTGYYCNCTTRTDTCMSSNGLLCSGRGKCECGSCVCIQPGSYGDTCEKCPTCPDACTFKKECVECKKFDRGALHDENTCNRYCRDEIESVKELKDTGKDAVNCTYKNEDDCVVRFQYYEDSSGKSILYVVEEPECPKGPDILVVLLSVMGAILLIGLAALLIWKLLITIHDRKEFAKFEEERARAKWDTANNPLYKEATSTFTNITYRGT

CCCC(=O)NC(Cc1ccc2cc(OCc3ccc(C(=N)N)cc3)ccc2c1)C(=O)O (stereo not shown) [ND-1, 2-butyramido-3-(6-((4-carbamimidoylbenzyl)oxy)naphthalen-2-yl)propanoic acid]
IC50: 3.12 µM
